For one assay, the target named is T1, human CSNK1D (Homo sapiens, UniProt P48730).
T1 construct: expressed in transfected cells
Description: Whole Cell nBRET CSNK1D Binding Assay. The note with it: living CHO cells stably expressing human CSNK1D tagged with nanoluciferase; NanoBret tracer 130 nM; 2 hours at 37 C.

For assay [1], the target named is T2, human recombinant GST cleaved CSNK1D (Homo sapiens, UniProt P48730).
T2 construct: GST (cleaved yes); purchased University of Dundee clone DU 19064
T2 sequence (P48730 whole entry): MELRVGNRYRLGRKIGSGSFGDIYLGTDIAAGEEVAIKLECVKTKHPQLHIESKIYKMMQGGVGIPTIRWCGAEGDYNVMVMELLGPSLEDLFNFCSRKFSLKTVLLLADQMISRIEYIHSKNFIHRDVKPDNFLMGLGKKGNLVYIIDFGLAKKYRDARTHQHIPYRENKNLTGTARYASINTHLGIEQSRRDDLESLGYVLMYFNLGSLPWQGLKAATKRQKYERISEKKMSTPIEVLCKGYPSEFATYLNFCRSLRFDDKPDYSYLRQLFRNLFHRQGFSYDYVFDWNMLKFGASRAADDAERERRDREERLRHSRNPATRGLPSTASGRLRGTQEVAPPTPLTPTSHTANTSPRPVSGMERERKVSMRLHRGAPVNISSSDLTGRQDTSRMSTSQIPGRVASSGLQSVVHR
The assay can be described thus: Purified Enzyme Assay (ADP-Glo CSNK1D Kinase Assay). Particulars: 2 nM CSNK1D; peptide substrate 150 μM; ATP 20 μM; 45 minutes at room temperature. The format is biochemical. In short, it runs like this: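 GST-cleaved human recombinant CSNK1D phosphorylates peptide PLSRTL-pS-VASLPGL with ATP; compounds added in dose-response, 45 min at room temperature. ADP formed measured by ADP-Glo luminescence and converted to percent activity.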
(In general: ADP-Glo turns the ADP formed in a reaction into a luminescent signal.)

For orientation: IC50 means the concentration that inhibits the measured activity by half.

T1 sequence (P48730 whole entry): as above

Turning to `CC[C@@]1(C)Cn2nc(-c3ccc(F)cn3)c(-c3ccnc4[nH]ncc34)c2CO1` (single isomer, unassigned) [Example 170, *S-6-Ethyl-2-(5-fluoropyridin-2-(l)-6-methyl-3-(1H-pyrazolo[3,4-b]pyridin-4-yl)-6,7-dihydro-4H-pyrazolo[5,1-c][1,4]oxazine], the IC50 at human CSNK1D came to 42 nM; in assay [1] it was 2 nM.

On to `Fc1ccc(-c2nn3c(c2-c2ccnc4[nH]ncc24)CCC(F)(COC(F)F)C3)nc1` (single isomer, unassigned) [Example 314, (*S)-4-(6-((Difluoromethoxy)methyl)-6-fluoro-2-(5-fluoropyridin-2-yl)-4,5,6,7-tetrahydropyrazolo[1,5-a]pyridin-3-yl)-1H-pyrazolo[3,4-b]pyridine], for which the values for the IC50 (at human CSNK1D; in assay [1]) were 14 nM and 4 nM, respectively.

Turning to `CC1(C)Cn2nc(-c3ccc(F)cn3)c(-c3cc(CCC(F)(F)F)nc4[nH]ncc34)c2CO1` [Example 391, 2-(5-Fluoro-2-pyridyl)-6,6-dimethyl-3-[6-(3,3,3-trifluoropropyl)-1H-pyrazolo[3,4-b]pyridin-4-yl]-4,7-dihydropyrazolo[5,1-c][1,4]oxazine], the values for the IC50 (on human CSNK1D; in assay [1]) were 5380 nM and 258 nM, respectively.

For `Fc1ccc(-c2nn3c(c2-c2ccnc4[nH]ccc24)CCCC3)cc1` [Example 33, 4-[2-(4-Fluorophenyl)-4,5,6,7-tetrahydropyrazolo[1,5-a]pyridin-3-yl]-1H-pyrrolo[2,3-b]pyridine], the IC50 at human CSNK1D worked out at 20 nM; in assay [1], 4 nM.

Consider `Fc1ccc(-c2nn3c(c2-c2c(F)cnc4[nH]ncc24)C[C@@H]2C[C@@H]23)nc1` [Example 272, (4aS,5aS)-3-(5-Fluoro-1H-pyrazolo[3,4-b]pyridin-4-yl)-2-(5-fluoropyridin-2-yl)-4,4a,5,5a-tetrahydrocyclopropa[4,5]pyrrolo[1,2-b]pyrazole], for which the values for the IC50 (on human CSNK1D; in assay [1]) were 71 nM and 2 nM, respectively.

Consider `c1cc(-c2c(-c3cscn3)nn3c2CCCC3)c2cn[nH]c2n1` [Example 31, 4-(3-(1H-Pyrazolo[3,4-b]pyridin-4-yl)-4,5,6,7-tetrahydropyrazolo[1,5-a]pyridin-2-yl)thiazole], for which the results for the concentration for half-maximal inhibition (IC50) (on human CSNK1D; in assay [1]) were 995 nM and 65 nM, respectively.

With `Cc1cc(-c2c(-c3ccc(F)cc3)nn3c2COCC3)c2cn[nH]c2n1` [Example 71, 2-(4-Fluorophenyl)-3-(6-methyl-1H-pyrazolo[3,4-b]pyridin-4-yl)-6,7-dihydro-4H-pyrazolo[5,1-c][1,4]oxazine], the IC50 was determined as 21 nM on human CSNK1D and 2 nM in assay [1].

As for `Fc1ccc(-c2nn3c(c2-c2ccnc4[nH]ncc24)C2CC2C3)cc1` (racemic) [Example 275, (Racemic) 2-(4-Fluorophenyl)-3-(1H-pyrazolo[3,4-b]pyridin-4-yl)-3b,4,4a,5-tetrahydrocyclopropa[3,4]pyrrolo[1,2-b]pyrazole], the IC50 was found to be 9 nM at human CSNK1D and 1 nM in assay [1].

Take `[2H]C([2H])([2H])OC[C@]1(F)CCc2c(-c3cc(C)nc4[nH]ncc34)c(-c3ccc(F)cn3)nn2C1` (single isomer, unassigned) [Example 310, (*S)-4-(6-Fluoro-2-(5-fluoropyridin-2-yl)-6-((methoxy-d3)methyl)-4,5,6,7-tetrahydropyrazolo[1,5-a]pyridin-3-yl)-6-methyl-1H-pyrazolo[3,4-b]pyridine]: the IC50 at human CSNK1D came out at 34 nM; in assay [1], 3 nM.

Turning to `Cc1cnc(N)cc1-c1c(-c2ccc(F)cn2)nn2c1COC(C)(C)C2` [Example 378, 4-(2-(5-Fluoropyridin-2-yl)-6,6-dimethyl-6,7-dihydro-4H-pyrazolo[5,1-c][1,4]oxazin-3-yl)-5-methylpyridin-2-amine], the IC50 turned out to be 2300 nM on human CSNK1D and 119 nM in assay [1].

With `Cc1nc2[nH]ncc2c(-c2c(-c3ccc(F)cn3)nn3c2CC[C@@H]2C[C@@H]23)c1F` (single isomer, unassigned) [Example 344, (5a*R,6a*S)-3-(5-Fluoro-6-methyl-1H-pyrazolo[3,4-b]pyridin-4-yl)-2-(5-fluoropyridin-2-yl)-5,5a,6,6a-tetrahydro-4H-cyclopropa[e]pyrazolo[1,5-a]pyridine], the IC50 on human CSNK1D stood at 44 nM; in assay [1], 4 nM.

In the case of `Cc1cc(-c2c(-c3ccc(F)cc3)nn3c2OCC(C)(C)C3)c2cn[nH]c2n1` [Example 213, 2-(4-Fluorophenyl)-6,6-dimethyl-3-(6-methyl-1H-pyrazolo[3,4-b]pyridin-4-yl)-6,7-dihydro-5H-pyrazolo[5,1-b][1,3]oxazine], the IC50 amounted to 2 nM on human CSNK1D and 1 nM in assay [1].

Take `Cc1cc(-c2c(-c3ccc(F)cn3)nn3c2CCC3)c2cn[nH]c2n1` [Example 8, 4-[2-(5-Fluoro-2-pyridyl)-5,6-dihydro-4H-pyrrolo[1,2-b]pyrazol-3-yl]-6-methyl-1H-pyrazolo[3,4-b]pyridine]: the IC50 stood at 87 nM at human CSNK1D and 4 nM in assay [1].

With `Fc1ccc(-c2nn3c(c2-c2ccnc4[nH]ncc24)CC[C@H]2[C@@H]3C2(F)F)cc1` (stereo in doubt) [Example 355, (5a*S,6a*R)-6,6-Difluoro-2-(4-fluorophenyl)-3-(1H-pyrazolo[3,4-b]pyridin-4-yl)-5,5a,6,6a-tetrahydro-4H-cyclopropa[e]pyrazolo[1,5-a]pyridine], the IC50 on human CSNK1D amounted to 27 nM; in assay [1], 9 nM.

Consider `Cc1cc(-c2c(-c3ccc(F)cc3)nn3c2CCC(F)(F)C3)c2cn[nH]c2n1` [Example 43, 4-[6,6-Difluoro-2-(4-fluorophenyl)-5,7-dihydro-4H-pyrazolo[1,5-a]pyridin-3-yl]-6-methyl-1H-pyrazolo[3,4-b]pyridine], for which the IC50 on human CSNK1D came to 12 nM; in assay [1], 2 nM.

Take `[2H]C([2H])([2H])OC([2H])([2H])[C@]1(F)CCc2c(-c3cc(C)nc4[nH]ncc34)c(-c3ccc(F)cn3)nn2C1` (single isomer, unassigned) [Example 312, (*S)-4-[6-[(Methoxy-d3)methyl-d2]-6-fluoro-2-(5-fluoro-2-pyridyl)-5,7-dihydro-4H-pyrazolo[1,5-a]pyridin-3-yl]-6-methyl-1H-pyrazolo[3,4-b]pyridine]: the IC50 at human CSNK1D was determined as 39 nM; in assay [1] it was 4 nM.

For the compound `Cc1nc(-c2c(-c3ccc(F)cc3)nn3c2COC(C)(C(F)(F)F)C3)c2cn[nH]c2n1` (centres unmarked) [Example 422, 2-(4-Fluorophenyl)-6-methyl-3-(6-methyl-1H-pyrazolo[3,4-d]pyrimidin-4-yl)-6-(trifluoromethyl)-6,7-dihydro-4H-pyrazolo[5,1-c][1,4]oxazine], the IC50 was 20 nM on human CSNK1D and 3 nM in assay [1].

`Cc1cc(-c2c(-c3ccc(F)cn3)nn3c2O[C@@H](C)C[C@H]3C)c2cn[nH]c2n1` (single isomer, unassigned) [Example 206, (5*S,7*R)-2-(S-Fluoro-2-pyridyl)-5,7-dimethyl-3-(6-methyl-1H-pyrazolo[3,4-b]pyridin-4-yl)-6,7-dihydro-5H-pyrazolo[5,1-b][1,3]oxazine]: the IC50 worked out at 249 nM at human CSNK1D and 14 nM in assay [1].

For `COc1ccc2nccc(-c3c(-c4ccc(F)cn4)nn4c3CC[C@@H]4C)c2n1` [Example 22, 8-[(6S)-2-(5-Fluoro-2-pyridyl)-6-methyl-5,6-dihydro-4H-pyrrolo[1,2-b]pyrazol-3-yl]-2-methoxy-1,5-naphthyridine], the IC50 at human CSNK1D was 345 nM; in assay [1], 23 nM.

For the origin of these results see US20230339970A1, “CASEIN KINASE 1 DELTA MODULATORS” (priority 2020, published 2023).
